Read-outs that look alike come from different tables or passages of the source.
Tests used:
Assay in all cases: biochemical
[1] = molecular target: E. coli DNA gyrase (Escherichia coli, UniProt P0AES4+P0AES6); conditions: for IC50: IC50 DNA gyrase; for inhibition at 50 µM: read-out: % inhibition DNA gyrase
[2] = molecular target: S. aureus DNA gyrase (Staphylococcus aureus, UniProt P0A0K8+P20831); conditions: for IC50: IC50 DNA gyrase; for inhibition at 50 µM: read-out: % inhibition DNA gyrase
[3] = molecular target: S. aureus Topoisomerase IV (Staphylococcus aureus, UniProt P0C1S7+P0C1U9); conditions: for inhibition at 50 µM: read-out: % inhibition Topo IV
[4] = molecular target: E. coli Topoisomerase IV (Escherichia coli, UniProt P0AFI2+P20083); conditions: for IC50: IC50 Topo IV; for inhibition at 50 µM: read-out: % inhibition Topo IV
[5] = S. aureus, compound conc. 50 μM, percent of inhibition versus positive control, n/a = not active

Chain of E. coli Topoisomerase IV (P0AFI2 whole entry): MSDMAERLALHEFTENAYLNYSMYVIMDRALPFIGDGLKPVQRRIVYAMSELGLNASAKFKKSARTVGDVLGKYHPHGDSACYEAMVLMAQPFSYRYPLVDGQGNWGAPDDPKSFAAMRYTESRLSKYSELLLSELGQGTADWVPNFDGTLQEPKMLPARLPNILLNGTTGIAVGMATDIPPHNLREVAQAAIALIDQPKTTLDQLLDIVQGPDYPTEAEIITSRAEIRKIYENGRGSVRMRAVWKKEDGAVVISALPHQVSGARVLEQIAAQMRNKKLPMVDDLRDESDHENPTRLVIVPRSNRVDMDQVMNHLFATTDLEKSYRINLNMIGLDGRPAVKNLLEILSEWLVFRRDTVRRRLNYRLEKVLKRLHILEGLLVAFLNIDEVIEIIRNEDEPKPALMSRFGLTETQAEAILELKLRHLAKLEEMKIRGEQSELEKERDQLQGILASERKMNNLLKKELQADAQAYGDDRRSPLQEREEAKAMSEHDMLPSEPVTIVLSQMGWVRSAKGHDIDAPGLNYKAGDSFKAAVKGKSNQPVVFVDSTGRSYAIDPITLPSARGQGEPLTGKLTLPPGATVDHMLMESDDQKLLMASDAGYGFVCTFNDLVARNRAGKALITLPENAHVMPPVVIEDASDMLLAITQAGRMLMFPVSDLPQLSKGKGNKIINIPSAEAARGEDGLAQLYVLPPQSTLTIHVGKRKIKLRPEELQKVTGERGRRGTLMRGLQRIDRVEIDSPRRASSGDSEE
Chain of E. coli Topoisomerase IV (P20083 whole entry): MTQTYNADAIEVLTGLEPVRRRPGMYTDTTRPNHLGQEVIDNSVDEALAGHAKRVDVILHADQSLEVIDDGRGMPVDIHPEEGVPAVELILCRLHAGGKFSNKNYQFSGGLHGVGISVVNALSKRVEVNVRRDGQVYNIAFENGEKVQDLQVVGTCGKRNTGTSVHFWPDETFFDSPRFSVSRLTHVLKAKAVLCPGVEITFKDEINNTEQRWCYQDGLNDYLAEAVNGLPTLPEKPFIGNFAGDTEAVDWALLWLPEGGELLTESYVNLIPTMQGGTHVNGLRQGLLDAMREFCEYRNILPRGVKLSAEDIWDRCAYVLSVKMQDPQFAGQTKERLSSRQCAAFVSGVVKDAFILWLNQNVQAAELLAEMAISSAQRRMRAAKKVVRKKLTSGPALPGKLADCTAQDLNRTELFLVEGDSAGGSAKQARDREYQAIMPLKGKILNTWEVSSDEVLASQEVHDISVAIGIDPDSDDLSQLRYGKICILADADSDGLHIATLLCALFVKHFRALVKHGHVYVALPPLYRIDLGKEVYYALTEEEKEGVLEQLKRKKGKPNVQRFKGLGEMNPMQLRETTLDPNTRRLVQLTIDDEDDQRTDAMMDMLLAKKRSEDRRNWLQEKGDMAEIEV
Chain of E. coli DNA gyrase (P0AES4 whole entry, one chain of several): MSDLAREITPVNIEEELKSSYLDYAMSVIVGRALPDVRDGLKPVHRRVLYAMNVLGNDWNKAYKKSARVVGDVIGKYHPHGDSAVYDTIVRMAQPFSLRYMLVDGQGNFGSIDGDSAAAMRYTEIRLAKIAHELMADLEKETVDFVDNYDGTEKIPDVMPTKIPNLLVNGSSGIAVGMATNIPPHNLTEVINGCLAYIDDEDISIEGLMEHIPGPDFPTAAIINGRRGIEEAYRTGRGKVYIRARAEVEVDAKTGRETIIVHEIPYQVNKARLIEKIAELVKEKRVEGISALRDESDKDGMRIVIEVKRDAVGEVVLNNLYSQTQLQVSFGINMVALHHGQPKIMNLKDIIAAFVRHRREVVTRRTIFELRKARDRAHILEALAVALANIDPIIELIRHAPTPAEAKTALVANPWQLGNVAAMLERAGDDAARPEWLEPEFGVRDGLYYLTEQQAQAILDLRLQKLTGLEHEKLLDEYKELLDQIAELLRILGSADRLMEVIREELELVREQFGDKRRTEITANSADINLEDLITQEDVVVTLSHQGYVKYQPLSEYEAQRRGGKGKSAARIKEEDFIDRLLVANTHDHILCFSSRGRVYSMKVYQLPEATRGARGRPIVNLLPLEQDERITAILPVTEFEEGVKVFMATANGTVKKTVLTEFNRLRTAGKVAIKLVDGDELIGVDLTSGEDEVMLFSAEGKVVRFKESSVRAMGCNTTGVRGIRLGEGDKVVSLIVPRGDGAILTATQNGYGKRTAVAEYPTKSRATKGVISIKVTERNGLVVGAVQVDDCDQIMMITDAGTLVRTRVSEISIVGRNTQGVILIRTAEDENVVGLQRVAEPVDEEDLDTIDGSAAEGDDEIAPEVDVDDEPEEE
Chain of S. aureus Topoisomerase IV (P0C1U9 whole entry): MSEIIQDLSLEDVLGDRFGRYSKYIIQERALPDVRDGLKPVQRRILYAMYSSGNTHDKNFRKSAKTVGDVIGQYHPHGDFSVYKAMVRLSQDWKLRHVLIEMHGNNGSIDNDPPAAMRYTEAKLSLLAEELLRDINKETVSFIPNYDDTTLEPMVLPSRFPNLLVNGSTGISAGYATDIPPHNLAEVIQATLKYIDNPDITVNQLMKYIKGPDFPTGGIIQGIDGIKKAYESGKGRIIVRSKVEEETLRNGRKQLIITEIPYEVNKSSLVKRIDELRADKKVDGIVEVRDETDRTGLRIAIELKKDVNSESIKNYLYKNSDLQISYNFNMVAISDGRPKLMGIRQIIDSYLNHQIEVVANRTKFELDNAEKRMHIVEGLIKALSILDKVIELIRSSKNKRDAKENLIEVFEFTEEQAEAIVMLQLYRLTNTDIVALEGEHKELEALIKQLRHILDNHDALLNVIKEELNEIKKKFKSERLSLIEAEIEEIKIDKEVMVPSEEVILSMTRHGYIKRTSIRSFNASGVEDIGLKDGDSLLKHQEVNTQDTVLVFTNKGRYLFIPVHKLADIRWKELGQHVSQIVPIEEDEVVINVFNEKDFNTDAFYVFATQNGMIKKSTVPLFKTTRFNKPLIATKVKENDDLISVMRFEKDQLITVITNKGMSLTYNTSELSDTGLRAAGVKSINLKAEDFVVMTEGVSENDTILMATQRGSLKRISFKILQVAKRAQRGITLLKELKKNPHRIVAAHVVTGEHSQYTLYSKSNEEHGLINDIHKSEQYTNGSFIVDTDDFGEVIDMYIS
Chain of S. aureus Topoisomerase IV (P0C1S7 whole entry): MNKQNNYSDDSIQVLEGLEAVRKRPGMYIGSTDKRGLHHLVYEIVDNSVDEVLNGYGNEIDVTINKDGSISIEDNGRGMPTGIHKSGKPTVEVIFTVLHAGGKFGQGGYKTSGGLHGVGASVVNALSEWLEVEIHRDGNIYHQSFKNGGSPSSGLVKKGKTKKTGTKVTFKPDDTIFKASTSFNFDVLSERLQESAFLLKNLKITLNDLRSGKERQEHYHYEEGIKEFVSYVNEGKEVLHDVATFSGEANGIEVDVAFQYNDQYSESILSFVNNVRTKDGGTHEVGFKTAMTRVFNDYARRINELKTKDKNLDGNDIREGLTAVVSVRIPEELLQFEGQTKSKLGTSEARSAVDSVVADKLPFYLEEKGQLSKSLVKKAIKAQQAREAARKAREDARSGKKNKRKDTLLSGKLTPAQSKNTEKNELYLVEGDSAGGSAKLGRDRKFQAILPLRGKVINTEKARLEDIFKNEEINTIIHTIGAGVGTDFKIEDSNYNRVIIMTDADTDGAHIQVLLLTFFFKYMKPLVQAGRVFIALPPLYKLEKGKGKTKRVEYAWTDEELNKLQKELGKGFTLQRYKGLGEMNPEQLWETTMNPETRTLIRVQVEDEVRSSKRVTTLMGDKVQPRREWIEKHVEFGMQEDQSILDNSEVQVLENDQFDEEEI

Row | Structure (SMILES) | IC50 [1] | inhibition at 50 µM [1] | IC50 [2] | inhibition at 50 µM [2] | IC50 ([3]; IC50 Topo IV) | inhibition at 50 µM [3, 5] | IC50 [4] | inhibition at 50 µM [4] | % inhibition Topo IV [3, 5] | % inhibition Topo IV [4] | inhibition at 50 µM [3] | % inhibition DNA gyrase [1] | % inhibition DNA gyrase [2] | IC50 ([3]; S. aureus, Table 3, eight half-log concentrations ranging from 0.1 to 300 μM, read-out: IC50 Topo IV)
1 | O=c1oc2ccc(F)cc2c2[nH]c(CN[C@H]3CC[C@H](n4c(=O)cnc5ncc(F)cc54)CC3)cc12 [Compound 209, 8-fluoro-2-({[trans-4-(7-fluoro-2-oxopyrido[2,3-b]pyrazin-1(2H)-yl)cyclohexyl]amino}methyl)[1]benzopyrano[4,3-b]pyrrol-4(1H)-one] | 0.13 µM | 100% | 0.3 µM | 100% | 0.22 µM | 100% | 1 µM | 100% | – | – | – | – | – | –
2 | O=c1oc2ccccc2c2[nH]c(CNCC3CN(c4nccc5ccc(F)cc45)CCO3)cc12 (single isomer, unassigned) [Compound 182, 2-[({[4-(7-fluoroisoquinolin-1-yl)morpholin-2-yl]methyl}amino)methyl][1]benzopyrano[4,3-b]pyrrol-4(1H)-one] | 0.74 µM | 61% | 0.64 µM | 92% | 0.74 µM | – | 3.21 µM | – | 50a % | 52% | – | – | – | –
3 | COc1cnc2ccc(=O)n(C3CCN(CCc4cc5c(=O)oc6ccc(F)cc6c5[nH]4)CC3)c2n1 [Compound 200] | 0.04 µM | 90% | < 0.1 µM | 100% | < 0.1 µM | – | < 0.1 µM | 100% | – | – | 100% | – | – | –
4 | COc1cnc2ncc(=O)n([C@H]3CC[C@@H](NCc4cc5c(=O)oc6ccc(F)cc6c5[nH]4)CC3)c2c1 [Compound 213, 8-fluoro-2-({[cis-4-(7-methoxy-2-oxopyrido[2,3-b]pyrazin-1(2H)-yl)cyclohexyl]amino}methyl)[1]benzopyrano[4,3-b]pyrrol-4(1H)-one] | 0.11 µM | 98% | 0.28 µM | 100% | 0.58 µM | 84% | 1 µM | 97% | – | – | – | – | – | –
5 | O=C1COc2ncc(F)cc2N1[C@H]1CC[C@H](NCc2cc3c(=O)oc4ccc(F)cc4c3[nH]2)CC1 [Compound 193, 8-fluoro-2-({[trans-4-(7-fluoro-2-oxo-2,3-dihydro-1H-pyrido[2,3-b][1,4]oxazin-1-yl)cyclohexyl]amino}methyl)[1]benzopyrano[4,3-b]pyrrol-4(1H)-one] | 0.25 µM | 77% | 0.28 µM | 86% | 2.25 µM | – | 1.38 µM | 50% | – | – | 74% | – | – | –
6 | O=C1COc2ncc(F)cc2N1[C@H]1CC[C@H](N(CCO)Cc2cc3c(=O)oc4ccc(F)cc4c3[nH]2)CC1 [Compound 221, 8-fluoro-2-({[trans-4-(7-fluoro-2-oxo-2,3-dihydro-1H-pyrido[2,3-b][1,4]oxazin-1-yl)cyclohexyl](2-hydroxyethyl)amino}methyl)[1]benzopyrano[4,3-b]pyrrol-4(1H)-one] | 0.92 µM | 81% | 2.76 µM | 100% | 2.63 µM | 100% | 0.67 µM | 50% | – | – | – | – | – | –
7 | COc1ccc2ncc(=O)n([C@H]3CC[C@H](NCc4cc5c(=O)oc6ccc(F)cc6c5[nH]4)CC3)c2n1 [Compound 201, 8-fluoro-2-({[trans-4-(6-methoxy-3-oxopyrido[2,3-b]pyrazin-4(3H)-yl)cyclohexyl]amino}methyl)[1]benzopyrano[4,3-b]pyrrol-4(1H)-one] | < 0.1 µM | 100% | 0.19 µM | 100% | < 0.1 µM | – | < 0.1 µM | 100% | – | – | 100% | – | – | –
8 | COc1cnc2ccc(=O)n([C@H]3CC[C@H](NCc4cc5c(=O)oc6ccc(F)cc6c5[nH]4)CC3)c2c1 [Compound 204, 8-fluoro-2-({[trans-4-(7-methoxy-2-oxo-1,5-naphthyridin-1(2H)-yl)cyclohexyl]amino}methyl)[1]benzopyrano[4,3-b]pyrrol-4(1H)-one] | 0.05 µM | 100% | 0.64 µM | 100% | < 0.1 µM | 100% | < 0.1 µM | 100% | – | – | – | – | – | –
9 | O=c1oc2ccccc2c2[nH]c(CNCC3CCN(c4nccc5ccc(F)cc45)C3)cc12 (single isomer, unassigned) [Compound 181, 2-[({[1-(7-fluoroisoquinolin-1-yl)pyrrolidin-3-yl]methyl}amino)methyl][1]benzopyrano[4,3-b]pyrrol-4(1H)-one] | 0.44 µM | – | 0.73 µM | – | 0.36 µM | – | 3.67 µM | – | 50% | 91% | – | 53% | 92% | –
10 | O=C1COc2ncc(F)cc2N1[C@H]1CC[C@H](NCc2cc3ncc4c(c3[nH]2)OCCO4)CC1 [Compound 314, 1-[trans-4-{[(2,3-dihydro-9H-[1,4]dioxino[2,3-d]pyrrolo[3,2-b]pyridin-8-yl)methyl]amino}cyclohexyl]-7-fluoro-1H-pyrido [2,3-b][1,4]oxazin-2(3H)-one] | 0.85 µM | – | 7.1 µM | – | > 100 µM | – | 1.14 µM | – | – | – | – | – | – | –
11 | O=c1nc(NCC(O)CN2CCN(c3nccc4ccncc34)CC2)c2cc(F)ccc2o1 (stereo not shown) [Compound 157, 6-fluoro-4-({2-hydroxy-3-[4-(2,7-naphthyridin-1-yl)piperazin-1-yl]propyl}amino)-2H-1,3-benzoxazin-2-one] | 2.34 µM | 83% | 2.48 µM | 89% | – | – | 0.64 µM | 100% | – | – | 100% | – | – | 1.02 µM
12 | O=C1COc2ncc(F)cc2N1[C@H]1CC[C@](CO)(NCc2cc3c(=O)oc4ccc(F)cc4c3[nH]2)CC1 [Compound 220, 8-fluoro-2-({[trans-4-(7-fluoro-2-oxo-2,3-dihydro-1H-pyrido[2,3-b][1,4]oxazin-1-yl)-1-(hydroxymethyl)cyclohexyl]amino}methyl)[1]benzopyrano[4,3-b]pyrrol-4(1H)-one] | 0.68 µM | 100% | 1.97 µM | 100% | 2.91 µM | 100% | 0.74 µM | 50% | – | – | – | – | – | –
13 | O=c1oc2ccccc2c2[nH]c(CNCC3CN(c4nccc5ccc(F)cc45)CCO3)cc12 (single isomer, unassigned) [Compound 183, 2-[({[4-(7-fluoroisoquinolin-1-yl)morpholin-2-yl]methyl}amino)methyl][1]benzopyrano[4,3-b]pyrrol-4(1H)-one] | 0.77 µM | – | 0.74 µM | – | 0.19 µM | – | 2.48 µM | – | 85% | 77% | – | 81% | 84% | –
14 | COc1ccc2ccc(=O)n(C3CCN(CCc4cc5c(=O)oc6ccc(F)cc6c5[nH]4)CC3)c2n1 [Compound 202, 8-fluoro-2-{2-[4-(7-methoxy-2-oxo-1,8-naphthyridin-1(2H)-yl)piperidin-1-yl]ethyl}[1]benzopyrano[4,3-b]pyrrol-4(1H)-one] | – | 100% | – | 100% | – | – | – | 100% | – | – | 100% | – | – | –
15 | COc1ccc2ccc(=O)n([C@H]3CC[C@H](NCc4cc5c(=O)oc6ccc(F)cc6c5[nH]4)CC3)c2c1 [Compound 219, 8-fluoro-2-({[trans-4-(7-methoxy-2-oxoquinolin-1(2H)-yl)cyclohexyl]amino}methyl)[1]benzopyrano[4,3-b]pyrrol-4(1H)-one] | 0.22 µM | 100% | 0.22 µM | 100% | 0.65 µM | 100% | 0.22 µM | 100% | – | – | – | – | – | –
16 | O=c1oc2ccccc2c2[nH]c(CNCC3CCN(c4nccc5ccc(F)cc45)C3)cc12 (single isomer, unassigned) [Compound 180, 2-[({[1-(7-fluoroisoquinolin-1-yl)pyrrolidin-3-yl]methyl}amino)methyl][1]benzopyrano[4,3-b]pyrrol-4(1H)-one] | 0.48 µM | 58% | 1.7 µM | 90% | 0.11 µM | 50% | 3.78 µM | – | – | 57% | – | – | – | –
17 | O=c1oc2ccc(F)cc2c2[nH]c(CN[C@H]3CC[C@@H](n4c(=O)cnc5ncc(F)cc54)CC3)cc12 [Compound 210, 8-fluoro-2-({[cis-4-(7-fluoro-2-oxopyrido[2,3-b]pyrazin-1(2H)-yl)cyclohexyl]amino}methyl)[1]benzopyrano[4,3-b]pyrrol-4(1H)-one] | 0.44 µM | 92% | 1.3 µM | 100% | 1.31 µM | 84% | 13.8 µM | 86% | – | – | – | – | – | –
18 | O=c1oc2ccc(F)cc2c2[nH]c(CN[C@H]3CC[C@H](n4c(=O)cnc5ccc(F)cc54)CC3)cc12 [Compound 211, 8-fluoro-2-({[trans-4-(7-fluoro-2-oxoquinoxalin-1(2H)-yl)cyclohexyl]amino}methyl)[1]benzopyrano[4,3-b]pyrrol-4(1H)-one] | < 0.1 µM | 100% | < 0.1 µM | 100% | < 0.1 µM | 100% | < 0.1 µM | 100% | – | – | – | – | – | –

Reference: patent publication US10633366B2, “Antibacterial compounds” (AZIENDE CHIMICHE RIUNITE ANGELINI FRANCESCO A.C.R.A.F. …, priority 2016, dated 2020)
